# According to a melting point compilation (Tetko et al.; mined from patent text by program, amines drawn as free bases though some values may be those of a salt):
row,melting point [°C],SMILES
1,121 to 123,COc1c2c(c(OC)c(OC)c1OC)CCC(CCn1cnc3ccccc31)CC2
2,129 to 132,C=CCc1cc2c(c(CC=C)c1O)CCC(=O)N2CCCn1cnnc1
3,92 to 94,CC1=C(C(=O)Nc2cccc(C(=O)OC(C)C)c2)SCCO1
4,176 to 177,O=C(NC(=O)c1c(F)cccc1Cl)Nc1ccc(S(=O)(=O)C(F)(F)C(F)F)cc1F
5,208,NC(=O)c1c(OCc2c(F)cc(Br)cc2F)nsc1NC(=O)NCCCCN1CCCC1
6,46 to 49,Cc1cc(C2(C(F)(F)F)CC(C#N)=C(c3ccccc3)O2)ccc1NC(=O)OC(C)(C)C (stereo not drawn)
7,87 to 88,C=C1CC2C(=O)C(c3c(CC)cc(C)cc3CC)=C(OCc3ccccc3)C2C1 (stereo not drawn)
8,78,O=C(COc1ccc(Cl)cc1)C1(Cl)CC1
9,138,CCCC(=O)C1c2cccc(O)c2C(=O)c2c(O)cccc21
10,330,O=S1(=O)c2ccccc2Nc2c1c(O)c(O)c1ccccc21
11,173,CCCC(CCC)N1Cc2c(C(=O)OC)cc(NS(C)(=O)=O)cc2C1=O
12,221 to 222,CC12CCC3c4ccc(O)cc4CCC3C1CCC2OC(=O)c1cccnc1 (stereo not drawn)
13,81 to 83,Cc1ccc(S(=O)(=O)OCCC2CCN(C(=O)c3ccccc3)CC2)cc1
14,194 to 196,CCCn1c(COC)nc2c(N)nc3ccc(OCC4CCCN(C)C4)cc3c21 (stereo not drawn)
15,145,OC(c1ccccc1)c1cc2ccccc2cc1C(O)c1ccccc1 (stereo not drawn)
16,221 to 223,C1=C(CC2=NCCN2)CCc2ccccc21
17,105 to 106,COc1cc(C2CCCCC2)ccc1C(O)CCC(=O)O (stereo not drawn)
18,228 to 229,CNC(=O)c1cc(OC)c(C(=O)NC)c(NC(=O)CCl)c1OC
19,75 to 76,CC(C)(C)[Si](C)(C)Oc1cccc(C(O)C(c2ccccc2)C2SCCCS2)c1 (stereo not drawn)
20,110 to 114,Cc1ccc(Br)c(S(C)(=O)=O)c1
21,216 to 219,CCC(C)(C)c1cc(-c2cccc(CC3SC(N4CCCC4)=NC3=O)c2)ccc1O (stereo not drawn)
22,75 to 76,Cc1ccc(C=CC(=O)C2CC2)cc1
23,82 to 85,CCCCCCCCCCCCCCCCCCOCC(CO)NC(C)=O (stereo not drawn)
24,135 to 137,C#CCNC(=O)N1CC(Oc2ccc(C(F)(F)F)cc2)C1

row,melting point [°C],SMILES
1,157 to 158,NC(=O)c1ccccc1N1CCN(CC[C@H]2OCCc3ccccc32)CC1
2,93 to 97,Cc1ccc(C)c(C2C(=O)Oc3c2cc(C(C)(C)C)cc3C(C)(C)C)c1 (stereo not drawn)
3,102 to 104,CCOC(=O)C1C(=O)C(C(=O)c2ccc(Cl)cc2[N+](=O)[O-])C(=O)CC1CC(C)SCC (stereo not drawn)
4,121 to 122,CC(C)OP(=O)(/C=C/CCn1cnc2c(N)ncnc21)OC(C)C
5,105 to 107,COCCOc1cc(NC(=O)OC(C)(C)C)c(N)cc1C#Cc1ccccc1
6,139 to 140,O=S(=O)(NCC1CCN(C[C@H]2COc3ccc(C(F)(F)F)cc3O2)CC1)c1cccc(Cl)c1Cl
7,52 to 54,CCCCCN(CCCCC)C(=O)C(CCC(=O)OC)CS(=O)(=O)c1ccc(Cl)c(Cl)c1 (stereo not drawn)
8,> 300,CCc1nnc2c(O)nc3cc(Cl)ccc3n12
9,90 to 92,O=[N+]([O-])c1nc(CC(O)C2CO2)c[nH]1 (stereo not drawn)
10,37 to 38,CCCCCCCCCCC(=O)OCCCCCC(=O)CC(=O)c1ccccc1
11,202 to 204,CCCCCc1cc2c(nc(O)n2CCCNC(=O)NC2CCCCC2)c(N)n1
12,144 to 146,COc1ccccc1N1CCN(CCCNC(=O)c2cccc3c(=O)cc(-c4ccccc4)sc23)CC1
13,246 to 249,COC(=O)CS(=O)(=O)c1ccc(N2CCN(c3ccc(C#N)cc3)C2=O)cc1
14,164 to 165,O=[N+]([O-])c1cccc(N2N=C(O)c3ccccc3C2CCO)c1 (stereo not drawn)
15,132 to 134,Cc1ncccc1CC(=NC#N)NC(NC(=O)Cc1ccc2ncccc2c1)C(C)(C)C (stereo not drawn)
16,130 to 132,CC(C)(c1ccc(N)cc1)c1ccc(N)cc1
17,122 to 123,COc1cc(CCC[C@H]2OC(=O)NC2=O)ccc1OCc1nc(-c2ccco2)oc1C
18,180,CCCC(=O)Nc1cc(Sc2ccccc2)ccc1NC(=NC(=O)OC)NC(=O)OC
19,69 to 70,OCc1nc(-c2ccccc2)ccc1Cl
20,100 to 102,COCCOC(=O)Nc1cccc(C)c1CCl
21,142 to 144,CCn1cc(Cl)nc(S)c1=O
22,141 to 143,COC(=O)C(=C/c1cc(OC)c(OC)c(OC)c1)/C(C(N)=O)=C(/C)c1ccccc1
23,158 to 163,O=C(Nc1ccc(-n2nc(C3CC3)cc2C2CC2)cc1)c1c(F)cccc1F
24,157 to 159,CC(C)(C)CN1C(=O)[C@@H](CCO)O[C@H](c2ccccc2Cl)c2cc(Cl)ccc21 (relative stereo)

row,melting point [°C],SMILES
1,123 to 135,CCS(=O)(=O)Nc1ccc(-c2cccc(-c3nc(C(C)C)[nH]c3-c3cccc(C)n3)c2)cc1
2,125 to 126,CC(=O)OC(=CC(=O)O)CC(=O)Nc1ccccc1
3,228,CC(C)(C)S(=O)(=O)c1ccccc1NC(=O)N[C@@H](Cc1ccc(NC(=O)c2c(Cl)cncc2Cl)cc1)C(=O)O
4,190,Cc1cc(O)cc(C)c1C=O
5,262 to 264,Fc1cc2c(Nc3ccc(Cl)c(Cl)c3)ncnc2cn1
6,188,O=C(CCl)Nc1ccc(Cl)cc1C(=O)O
7,234 to 236,Sc1nc2cc(Cl)c(Cl)cc2s1
8,184,Cc1oncc1-c1ccc(OC2SCC(O)C(O)C2O)cn1 (stereo not drawn)
9,252 to 256,Cn1nc(-c2ccc(Cl)c(Cl)c2)cc1C(=O)O
10,165,COc1ccc(OC)c(C(=O)/C=C/C(=C/C(=O)O)c2ccccc2)c1
11,176 to 181,Cc1cc(C(C)(C)C)c(OP2OP(Oc3c(C(C)(C)C)cc(C)cc3C(C)(C)C)OP(Oc3c(C(C)(C)C)cc(C)cc3C(C)(C)C)O2)c(C(C)(C)C)c1 (stereo not drawn)
12,164 to 166,CC(=NC(=Nc1ccccc1)N1CCOCC1)NC(C)(C)C
13,53 to 55,COCOc1cccc(F)c1C#N
14,153 to 154,NC(=O)N(O)Cc1ccc(N2CCC3(CC2)OCCO3)cc1
15,199 to 202,CCCc1nn(C)c2c(=O)[nH]c(-c3cc(-c4nccn4C)ccc3OCC)nc12
16,103 to 104,O=C1CCCNc2ccc(Cl)cc21
17,144 to 145,COc1cc(C#N)cc(Br)c1O
18,99.5 to 100,CC(=O)N1CCc2ccc(Cl)c(Cl)c2C1
19,104 to 105,COc1ccc2c(c1)C(CCNC(=O)C(C)C)CC2 (stereo not drawn)
20,163 to 164,COC(=O)C1C2CCC(C2)C1N(C)S(=O)(=O)c1ccc(O)cc1 (stereo not drawn)
21,113 to 114,COc1ccc([C@H](O)[C@@H](Cc2ccc(C(F)(F)F)cc2)C(=O)O)cc1 (racemic)
22,214,CN(C)c1cccc2c1c(=O)n(C)c1c(-c3nc(C4CC4)no3)ncn21
23,175 to 177,CN1C(=O)C=C[C@]2(C)c3ccc(-c4cccc([N+](=O)[O-])c4)cc3CC[C@@H]12
24,82.5 to 84.5,COc1cc(C2=NC(C)(C)CO2)cc(OC)c1SC

row,SMILES,melting point [°C]
1,CC1(C)CCC(C)(C)c2c(O)cc(Br)cc21,93
